Like-named read-outs stand apart in the source and are kept apart here.
Legend:
[1] = tested on: 4 bacterial screening strains (BIDMC 4, BIDMC 5, BIDMC 12A, and BIDMC 15); assay: Checkerboard synergy testing screen (FICI-MIN); assay type: cell-based, Klebsiella pneumoniae; Escherichia coli; details: range over strains; read-out: MICs of the strains
[2] = tested on: carbapenem-resistant Escherichia coli clinical isolates (blaKPC); assay: DDM (digital dispensing method) MIC testing of CRE isolates; assay type: cell-based; details: Escherichia coli, read-out: DDM modal MICs
Method: (§1) Bacterial strains: The 10 de-identified CRE clinical isolates used in the study were collected at our institution under Institutional Review Board-approved protocols and were sequenced through the carbapenem-resistant Enterobacteriaceae genome initiative at the Broad Institute (Cambridge, MA). All contained a Klebsiella pneumoniae carbapenemase (blaKPC) gene and were colony-purified, minimally passaged, and stored at -80° C. prior to use in this study.
(§2) After incubation, bacterial growth was quantified by measurement of OD600 using an Epoch (BioTek, Winooski, VT) or Spark 10 M microplate reader (Tecan, Morrisville, NC). An OD600 reading of 0.08 or greater (approximately twice typical background readings in wells containing broth alone) was considered indicative of bacterial growth (as also appreciable by visual assessment).
(§3) Precision and accuracy. […] Modal DDM MICs were calculated by taking the mode of all DDM MIC measurements obtained for a given antibiotic-strain combination, inclusive of initial MIC titrations and single-antibiotic rows/columns in synergy arrays (Table 5).

[3] = tested on: carbapenem-resistant Klebsiella pneumoniae clinical isolates (blaKPC); assay: as above; assay type: cell-based; details: for MIC: Klebsiella pneumoniae, read-out: DDM modal MICs
Method: as §1, §2, §3

[4] = tested on: eighty de-identified Enterobacteriaceae clinical isolates; assay: organism not typed; assay type: cell-based; details: eighty clinical isolates; reference microdilution; CLSI criteria, EUCAST for colistin
Method: K. pneumonia BIDMC12A is a previously described, carbapenem resistant clinical isolate (14) expressing a KPC-3 carbapenemase. The eighty de-identified Enterobacteriaceae clinical isolates (Table 1) used for verification studies were collected at our institution under IRB-approved protocols. All strains were minimally passaged and stored at -80° C. prior to use in this study.
Verification study: Digital dispensing and reference method testing were performed in parallel using the same inoculum preparation. Microdilution reference panels were pre-prepared and stored at -80° C. until use (less than 2 weeks). D300 test method panels were prepared fresh each day of use.
Accuracy was evaluated using established guidelines (16, 17). The MIC determined by the digital dispensing method was compared with the MIC determined by the broth microdilution reference method. Essential agreement, overall essential agreement, and categorical agreement were evaluated as described in the precision study.

P. mirabilis ATCC 702 = assay: MIC testing by broth microdilution and D300 digital dispensing (precision study); details: precision study, EUCAST criteria
Method: Broth microdilution testing: Broth microdilution was performed using the colony suspension method according to CLSI guidelines (13). Colistin testing was consistent with the joint CLSI-EUCAST (European Committee on Antimicrobial Susceptibility Testing) Polymyxin Breakpoints Working Group guidelines (15). Serial two-fold dilutions of antimicrobials at double concentration were made in 96-well plates (Evergreen Scientific, Los Angeles, CA) using cation adjusted Mueller-Hinton broth (BD Diagnostics, Franklin Lakes, NJ) in a 50 µl volume. […] MIC was defined as the lowest concentration of antimicrobial resulting in complete inhibition of growth as determined visually.
Bacterial suspensions were prepared as for broth microdilution and adjusted directly to the final inoculum concentration of 5 × 10^5 CFU ml^-1 in a 50 µl total assay volume. […] Cell growth was quantified by measurement of optical density at 600 nm (OD600) with an Epoch microplate reader (BioTek, Winooski, VT). A custom python script was used to classify wells with OD600 ≧ 0.08 (approximately two-fold above typical background readings) as having bacterial growth. […]
Precision analysis: A precision analysis was conducted according to established guidelines (16, 17). […] The modal MIC for both methods was determined using MIC values for on-scale measurements. Log2 difference of each measurement from the mode was recorded.

[5] = tested on: KPC-producing CRE K. pneumoniae strains; assay: Checkerboard synergy, spectrum of activity evaluation; assay type: cell-based, Klebsiella pneumoniae; details: strain BIDMC 18A
Method: Spectrum of activity evaluation. […] Each selected combination was tested in duplicate on separate days against the 10 clinical KPC-producing CRE strains (5 K. pneumoniae and 5 E. coli) listed in Table 5, including the original 4 used in the synergy testing screen.

[6] = tested on: carbapenem-resistant Enterobacteriaceae; details: cited from earlier work
E. cloacae ATCC 13047 = assay: MIC testing by broth microdilution and D300 digital dispensing (precision study); assay type: cell-based, Enterobacter cloacae; details: EUCAST criteria
[7] = tested on: 14 Enterobacteriaceae strains presumptively expressing extended spectrum beta-lactamase enzymes; assay: Inoculum effect by digitally dispensed checkerboard of bacteria and antibiotic; assay type: cell-based; details: inkjet printing method, inoculum above/below CLSI-recommended
Text: Inoculum effect experiments comprise a series of broth microdilution experiments in which the cell density of the bacterial inoculum is varied (often 10-fold) across multiple identical doubling dilutions of antibiotics. The MICs are then interpreted at each inoculum concentration.
There is currently no practical way to test for an inoculum effect within the workflow of a clinical laboratory, as such testing would require a highly laborious manual process of testing different inoculum levels with several potential antimicrobials. […] By varying the droplet size during digital printing of a bacterial suspension as described in the preceding section, a desired inoculum of bacteria can be added to each testing well. More specifically, doubling dilutions of bacterial inocula can be performed if desired, thereby establishing the relationship between inoculum and MIC through an inoculum dose-response curve.
We investigated the inoculum effect for cefepime (a fourth generation cephalosporin) on 14 Enterobacteriaceae strains presumptively expressing extended spectrum beta-lactamase enzymes based on third generation cephalosporin resistance. Bacteria and antibiotics were both dispensed as orthogonal, combinatorial two-fold dilution series using our digital dispensing method to create a checkerboard array. […]

E. coli ATCC 25922 = assay: Microscopy-based AST (MAST): cell morphology at the MIC; details: MAST, 2-hour incubation
Method: Briefly, antibiotics are added to solidified microwell surfaces which are subsequently inoculated with 200 nL of a standardized bacterial suspension. Both antibiotic and bacterial cell dispensing are performed using the HP D300 system. Following incubation at 35±2° C., plates are imaged on a Zeiss Cell Observer microscope operating in brightfield mode with a 40X long working distance objective. The microscope is equipped with an automated stage. […] The z-position of the poloxamer surface in the first well is set manually after which the software directs the stage to each subsequent well, collecting a z-series (20 slices at 2 µM per slice with the center of the z-series defined by the microscope’s autofocus feature) with no further operator intervention. Z-series are collapsed using the Extended Depth of Focus feature in the Zeiss Zen Blue software and saved as individual images.
Microscopy-based AST (MAST). […] Two-hundred nL of bacteria in NaCl-P20 suspended at a density of 0.1 McFarland were then delivered to the center of each well by digital dispensing. Immediately after inoculation, plates were incubated at 35±2° C. for 2 hours, and held at room temperature for 2 hours during transport and imaging.
Plates were imaged with a Zeiss Cell Observer microscope with settings described in the “quantification of bacterial dispensing” section. […]

Compound	MIC [1] [µg/mL]	MIC ([2]; BIDMC 6, ECO, KPC type 2) [µg/mL]	MIC ([2]; BIDMC 9, ECO, KPC type 2) [µg/mL]	MIC ([2]; BIDMC 15, ECO, KPC type 2) [µg/mL]	MIC ([2]; BIDMC 17A, ECO, KPC type 2) [µg/mL]	MIC ([2]; BIDMC 20A, ECO, KPC type 3) [µg/mL]	MIC ([3]; BIDMC 4, KPN, KPC type 3) [µg/mL]	MIC ([3]; BIDMC 5, KPN, KPC type 3) [µg/mL]	MIC ([3]; BIDMC 10, KPN, KPC type 3) [µg/mL]	MIC ([3]; BIDMC 12A, KPN, KPC type 3) [µg/mL]	MIC ([3]; BIDMC 18A, KPN, KPC type 2) [µg/mL]	Non-susceptible strains (%) [4] [%]	Non-susceptible strains n [4]	categorical susceptibility result (P. mirabilis ATCC 702)	MIC [5] [µg/mL]	share of carbapenem-resistant Enterobacteriaceae against which the drug is effective [6] [%]	categorical susceptibility result (E. cloacae ATCC 13047)	DDM modal MICs ([3]; BIDMC 5, KPN, KPC type 3) [mg/L]	inoculum effect [7]	cell morphology at the MIC (E. coli ATCC 25922)
C[C@@H](O)[C@H]1C(=O)N2C(C(=O)O)=C(S[C@@H]3CN[C@H](C(=O)Nc4cccc(C(=O)O)c4)C3)[C@H](C)[C@H]12 [ETP, ertapenem]	8 to 64	8	8	32	8	4	32	16	16	32	64	–	–	–	–	–	–	–	–	–
Colistin [Colistin (CL)]	–	–	–	–	–	–	–	–	–	–	–	21.5	17	resistance	> 128	> 85	resistance	0.5	–	–
CO/N=C(\C(=O)N[C@@H]1C(=O)N2C(C(=O)[O-])=C(C[N+]3(C)CCCC3)CS[C@H]12)c1csc(N)n1 [FEP, cefepime]	–	8	32	4	4	8	64	16	16	16	–	–	–	–	–	–	–	–	pronounced	filamented bacteria with a pronounced central bulge

From patent US20230304064A1, “AUTOMATED, DIGITAL DISPENSING PLATFORM FOR MICRODILUTION ANTIMICROBIAL SUSCEPTIBILITY TESTING” (priority 2016, published 2023)
